According to patent US9708314B2, “Heterocyclic amide compound” (NISSAN CHEMICAL INDUSTRIES, LTD., priority 2013, dated 2017):

Experiments:
Assay type in all cases: in vivo
[1] = tested on: Setaria viridis; assay: Test Example 4: herbicidal effect by application to foliage (diluvial soil, plastic box); details: for G (Setaria viridis) herbicidal effect grade: Application herbicide amount 320 g/ha, foliage application
Outline: (§1)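 Greenhouse plants (25° C. to 30° C., 14 d, diluvial soil) receive a foliar spray of water-diluted emulsifiable formulation at defined g/ha. Grading after 3 weeks uses a six-step herbicidal-ratio scale, with 4 covering 70% to <90% and 1 covering 5% to <20%.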

[2] = tested on: Abutilon theophrasti; assay: as above; details: for M (Abutilon theophrasti) herbicidal effect grade: Application herbicide amount 320 g/ha, foliage application
Outline: as §1

[3] = tested on: Digitaria ciliaris; assay: as above; details: for F (Digitaria ciliaris) herbicidal effect grade: Application herbicide amount 320 g/ha, foliage application
Outline: as §1

[4] = tested on: Lolium multiflorum Lam.; assay: as above; details: for K (Lolium multiflorum Lam.) herbicidal effect grade: Application herbicide amount 320 g/ha, foliage application
Outline: as §1

[5] = tested on: Veronica persica; assay: as above; details: for R (Veronica persica) herbicidal effect grade: Application herbicide amount 320 g/ha, foliage application
Outline: as §1

[6] = tested on: Echinochloa crus-galli var. crus-galli; assay: as above; details: for H (Echinochloa crus-galli var. crus-galli) herbicidal effect grade: Application herbicide amount 320 g/ha, foliage application
Outline: as §1

[7] = tested on: Stellaria media; assay: as above; details: for P (Stellaria media) herbicidal effect grade: Application herbicide amount 320 g/ha, foliage application
Outline: as §1

[8] = tested on: Galium spurium; assay: as above; details: for Q (Galium spurium) herbicidal effect grade: Application herbicide amount 320 g/ha, foliage application
Outline: as §1

[9] = tested on: Amaranthus retroflexus; assay: as above; details: for N (Amaranthus retroflexus) herbicidal effect grade: Application herbicide amount 320 g/ha, foliage application
Outline: as §1

[10] = tested on: Chenopodium album; assay: as above; details: for O (Chenopodium album) herbicidal effect grade: Application herbicide amount 320 g/ha, foliage application
Outline: as §1

[11] = tested on: Alopecurus myosuroides; assay: as above; details: for J (Alopecurus myosuroides) herbicidal effect grade: Application herbicide amount 320 g/ha, foliage application
Outline: as §1

[12] = tested on: Apera spica-venti.; assay: as above; details: for L (Apera spica-venti.) herbicidal effect grade: Application herbicide amount 320 g/ha, foliage application
Outline: as §1

[13] = tested on: Avena fatua; assay: as above; details: for I (Avena fatua) herbicidal effect grade: Application herbicide amount 320 g/ha, foliage application
Outline: as §1

[14] = tested on: Echinochloa crus-galli var. crus-galli; assay: Test Example 3: herbicidal effect by application to foliage (Wagner pot, water depth 0.1-0.5 cm); details: Nineteenth Table; application to foliage; application herbicide amount 320 g/ha
Outline: (§2)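 Post-emergence foliar application at a stated g/ha rate to plants grown 14 days from seed in alluvial soil, greenhouse 25–30 °C. Visual score after 3 weeks: 0 (≤5% effect) through 5 (≥90%).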

[15] = tested on: Leptochloa chinensis; assay: as above; details: Nineteenth Table; application to foliage; application herbicide amount 320 g/ha
Outline: as §2

[16] = tested on: Cyperus difformis; assay: as above; details: Nineteenth Table; application to foliage; application herbicide amount 320 g/ha
Outline: as §2

[17] = tested on: directly sowed Oryza sativa; assay: Test Example 4: effect on crop by application to foliage (diluvial soil, plastic box); details: for b (directly sowed Oryza sativa) effect on crop grade: Application herbicide amount 320 g/ha, foliage application
Outline: as §1

[18] = tested on: Beta vulgaris ssp. vulgaris; assay: as above; details: for f (Beta vulgaris ssp. vulgaris) effect on crop grade: Application herbicide amount 320 g/ha, foliage application
Outline: as §1

[19] = tested on: Glycine max; assay: as above; details: for d (Glycine max) effect on crop grade: Application herbicide amount 320 g/ha, foliage application
Outline: as §1

[20] = tested on: Brassica campestris L.; assay: as above; details: for g (Brassica campestris L.) effect on crop grade: Application herbicide amount 320 g/ha, foliage application
Outline: as §1

[21] = tested on: Zea mays; assay: as above; details: for c (Zea mays) effect on crop grade: Application herbicide amount 320 g/ha, foliage application
Outline: as §1

[22] = tested on: Triticum aestivum; assay: as above; details: for e (Triticum aestivum) effect on crop grade: Application herbicide amount 320 g/ha, foliage application
Outline: as §1

[23] = tested on: directly sowed Oryza sativa; assay: Test Example 3: effect on crop by application to foliage (Wagner pot, water depth 0.1-0.5 cm); details: Nineteenth Table; application to foliage; application herbicide amount 320 g/ha
Outline: as §2

[24] = application to foliage, application herbicide amount 320 g/ha

Row | SMILES | G (Setaria viridis) herbicidal effect grade [1] | M (Abutilon theophrasti) herbicidal effect grade [2] | F (Digitaria ciliaris) herbicidal effect grade [3] | K (Lolium multiflorum Lam.) herbicidal effect grade [4] | R (Veronica persica) herbicidal effect grade [5] | H (Echinochloa crus-galli var. crus-galli) herbicidal effect grade [6] | P (Stellaria media) herbicidal effect grade [7] | Q (Galium spurium) herbicidal effect grade [8] | N (Amaranthus retroflexus) herbicidal effect grade [9] | O (Chenopodium album) herbicidal effect grade [10] | J (Alopecurus myosuroides) herbicidal effect grade [11] | L (Apera spica-venti.) herbicidal effect grade [12] | I (Avena fatua) herbicidal effect grade [13] | H (herbicidal effect grade) [14] | D (herbicidal effect grade) [15] | E (herbicidal effect grade) [16] | b (directly sowed Oryza sativa) effect on crop grade [17] | f (Beta vulgaris ssp. vulgaris) effect on crop grade [18] | d (Glycine max) effect on crop grade [19] | g (Brassica campestris L.) effect on crop grade [20] | also measured
1 | COc1ccc(Cc2nnc3c(C(=O)Nc4nnco4)ccc(C(F)(F)F)n23)cc1 [1-151] | 3 (Herbicidal ratio of 40% or more and less than 70%) | 3 (Herbicidal ratio of 40% or more and less than 70%) | 5 (Herbicidal ratio of 90% or more (almost completely withered)) | 3 (Herbicidal ratio of 40% or more and less than 70%) | 5 (Herbicidal ratio of 90% or more (almost completely withered)) | 5 (Herbicidal ratio of 90% or more (almost completely withered)) | 5 (Herbicidal ratio of 90% or more (almost completely withered)) | 4 (Herbicidal ratio of 70% or more and less than 90%) | 5 (Herbicidal ratio of 90% or more (almost completely withered)) | 5 (Herbicidal ratio of 90% or more (almost completely withered)) | 1 (Herbicidal ratio of 5% or more and less than 20%) | 2 (Herbicidal ratio of 20% or more and less than 40%) | 3 (Herbicidal ratio of 40% or more and less than 70%) | 5 (Herbicidal ratio of 90% or more (almost completely withered)) | 4 (Herbicidal ratio of 70% or more and less than 90%) | 4 (Herbicidal ratio of 70% or more and less than 90%) | 0 (Herbicidal ratio of 5% or less (almost no effect)) | 5 (Herbicidal ratio of 90% or more (almost completely withered)) | 4 (Herbicidal ratio of 70% or more and less than 90%) | 5 (Herbicidal ratio of 90% or more (almost completely withered)) | c (Zea mays) effect on crop grade [21]: 0 (Herbicidal ratio of 5% or less (almost no effect)); e (Triticum aestivum) effect on crop grade [22]: 3 (Herbicidal ratio of 40% or more and less than 70%)
2 | C#CCN(C)c1nnc2c(C(=O)Nc3nnc(C)o3)ccc(C(F)(F)F)n12 [1-152] | 3 (Herbicidal ratio of 40% or more and less than 70%) | 3 (Herbicidal ratio of 40% or more and less than 70%) | 4 (Herbicidal ratio of 70% or more and less than 90%) | 1 (Herbicidal ratio of 5% or more and less than 20%) | 3 (Herbicidal ratio of 40% or more and less than 70%) | 4 (Herbicidal ratio of 70% or more and less than 90%) | 4 (Herbicidal ratio of 70% or more and less than 90%) | 1 (Herbicidal ratio of 5% or more and less than 20%) | 4 (Herbicidal ratio of 70% or more and less than 90%) | 5 (Herbicidal ratio of 90% or more (almost completely withered)) | 0 (Herbicidal ratio of 5% or less (almost no effect)) | 1 (Herbicidal ratio of 5% or more and less than 20%) | 2 (Herbicidal ratio of 20% or more and less than 40%) | 5 (Herbicidal ratio of 90% or more (almost completely withered)) | 5 (Herbicidal ratio of 90% or more (almost completely withered)) | 4 (Herbicidal ratio of 70% or more and less than 90%) | 0 (Herbicidal ratio of 5% or less (almost no effect)) | 4 (Herbicidal ratio of 70% or more and less than 90%) | 3 (Herbicidal ratio of 40% or more and less than 70%) | 1 (Herbicidal ratio of 5% or more and less than 20%) | c (Zea mays) effect on crop grade [21]: 0 (Herbicidal ratio of 5% or less (almost no effect)); e (Triticum aestivum) effect on crop grade [22]: 0 (Herbicidal ratio of 5% or less (almost no effect))
3 | Cc1nnc(NC(=O)c2ccc(C(F)(F)F)n3c(N(C)CCC#N)nnc23)o1 [1-153] | 4 (Herbicidal ratio of 70% or more and less than 90%) | 3 (Herbicidal ratio of 40% or more and less than 70%) | 4 (Herbicidal ratio of 70% or more and less than 90%) | 1 (Herbicidal ratio of 5% or more and less than 20%) | 4 (Herbicidal ratio of 70% or more and less than 90%) | 5 (Herbicidal ratio of 90% or more (almost completely withered)) | 5 (Herbicidal ratio of 90% or more (almost completely withered)) | 4 (Herbicidal ratio of 70% or more and less than 90%) | 4 (Herbicidal ratio of 70% or more and less than 90%) | 5 (Herbicidal ratio of 90% or more (almost completely withered)) | 1 (Herbicidal ratio of 5% or more and less than 20%) | 2 (Herbicidal ratio of 20% or more and less than 40%) | 3 (Herbicidal ratio of 40% or more and less than 70%) | 5 (Herbicidal ratio of 90% or more (almost completely withered)) | 5 (Herbicidal ratio of 90% or more (almost completely withered)) | 3 (Herbicidal ratio of 40% or more and less than 70%) | 3 (Herbicidal ratio of 40% or more and less than 70%) | 5 (Herbicidal ratio of 90% or more (almost completely withered)) | 5 (Herbicidal ratio of 90% or more (almost completely withered)) | 3 (Herbicidal ratio of 40% or more and less than 70%) | c (Zea mays) effect on crop grade [21]: 0 (Herbicidal ratio of 5% or less (almost no effect)); e (Triticum aestivum) effect on crop grade [22]: 2 (Herbicidal ratio of 20% or more and less than 40%)
4 | COc1ccc(N(C)c2nnc3c(C(=O)Nc4nnc(C)o4)ccc(C(F)(F)F)n23)cc1 [1-165] |  |  |  |  |  |  |  |  |  |  |  |  |  | 5 (Herbicidal ratio of 90% or more (almost completely withered)) | 4 (Herbicidal ratio of 70% or more and less than 90%) |  |  |  |  |  | G: herbicidal effect on Setaria viridis [1, 24]: 1 (Herbicidal ratio of 5% or more and less than 20%); M: herbicidal effect on Abutilon theophrasti [2, 24]: 3 (Herbicidal ratio of 40% or more and less than 70%); F: herbicidal effect on Digitaria ciliaris [3, 24]: 3 (Herbicidal ratio of 40% or more and less than 70%); K: herbicidal effect on Lolium multiflorum Lam. [4, 24]: 0 (Herbicidal ratio of 5% or less (almost no effect)); R: herbicidal effect on Veronica persica [5, 24]: 4 (Herbicidal ratio of 70% or more and less than 90%); H: herbicidal effect on Echinochloa crus-galli var. crus-galli [6, 24]: 4 (Herbicidal ratio of 70% or more and less than 90%); P: herbicidal effect on Stellaria media [7, 24]: 4 (Herbicidal ratio of 70% or more and less than 90%); Q: herbicidal effect on Galium spurium [8, 24]: 2 (Herbicidal ratio of 20% or more and less than 40%); N: herbicidal effect on Amaranthus retroflexus [9, 24]: 4 (Herbicidal ratio of 70% or more and less than 90%); O: herbicidal effect on Chenopodium album [10, 24]: 5 (Herbicidal ratio of 90% or more (almost completely withered)); J: herbicidal effect on Alopecurus myosuroides [11, 24]: 0 (Herbicidal ratio of 5% or less (almost no effect)); L: herbicidal effect on Apera spica-venti. [12, 24]: 2 (Herbicidal ratio of 20% or more and less than 40%); I: herbicidal effect on Avena fatua [13, 24]: 0 (Herbicidal ratio of 5% or less (almost no effect)); b (effect on crop grade) [23]: 0 (Herbicidal ratio of 5% or less (almost no effect)); b: effect on crop, directly sowed Oryza sativa [17, 24]: 0 (Herbicidal ratio of 5% or less (almost no effect)); f: effect on crop, Beta vulgaris ssp. vulgaris [18, 24]: 5 (Herbicidal ratio of 90% or more (almost completely withered)); d: effect on crop, Glycine max [19, 24]: 1 (Herbicidal ratio of 5% or more and less than 20%); g: effect on crop, Brassica campestris L. [20, 24]: 4 (Herbicidal ratio of 70% or more and less than 90%); c: effect on crop, Zea mays [21, 24]: 0 (Herbicidal ratio of 5% or less (almost no effect)); e: effect on crop, Triticum aestivum [22, 24]: 0 (Herbicidal ratio of 5% or less (almost no effect))
